# Entries after “also recorded” stand apart in the source; their conditions may differ. Like-named read-outs stand apart in the source and are kept apart here.
# What was measured:
# [1] = system: HCV (recombination virus strain J6/JFH/JC); experiment: Anti-HCV activity in Huh7.5 cells, intracellular HCV RNA by real-time RT-PCR; format: cell-based, hepatitis C virus (HCV); conditions: for EC50: anti-HCV activity, 72 h, HCV RNA by RT-PCR
# Experimental: (§1) All of the synthesized compounds were examined for their anti-HCV activity and cytotoxicity in Huh 7.5 cells using specific real-time RT-PCR assay, as described in our previous publication. Anti-HCV activity was evaluated by measuring both EC50 (for anti-HCV activity) and CC50 (for cytotoxicity) values. As a key indication, the selectivity index (SI) was calculated as a ratio of CC50 to EC50. Anti-HCV activity of the study compound was estimated by combining its EC50 value with SI.
# Huh7.5 cells were seeded into 96-well or 6-well plates (Costar) at a density of 3×10^4 cells/cm^2. After 24 h incubation, the cells were infected with HCV viral stock (recombination virus strain J6/JFH/JC, 45 IU/cell) and simultaneously treated with the test compounds at various concentrations.
# (§2) Concentrations or solvent as the control. The culture medium was removed after 72 h incubation, the intracellular total RNA (in 96-well plates) was extracted with RNeasy Mini Kit (Qiagen), and total intracellular proteins (in 6-well plates) were extracted with Cyto-Buster Protein Extraction Reagent added with 1 mM protease inhibitor cocktail. The intracellular HCV RNA was quantified with a real time one-step reverse-transcription polymerase chain reaction (RT-PCR). HCV core protein was detected with western blot (see below).
# [2] = system: Huh7.5 cells; experiment: Cytotoxicity assay (MTT) in Huh7.5 cells; format: cell-based, Human
# Experimental: as §1
# Huh7.5 cells were seeded into 96-well plates (Costar) at a density of 3×10^4 cells/cm^2. After 24 h incubation. Fresh culture medium containing test compounds at various concentrations were added. 72 h later, Cytotoxicity was evaluated with 3-(4,5-Dimethylthiazol-2-yl)-2,5-diphenyltetrazolium bromide (MTT).
# [3] = system: HCV; conditions: Huh7.5 cells
# From the text: To further confirm the mode of action for the activity against HCV, down-regulation of Hsc70 expression by 7c was also examined by Western Blot.
# [4] = target: T1, HCV NS3/4A protease (Hepatitis C virus genotype 2a, UniProt Q99IB8); format: biochemical; conditions: 250 µg/mL, in the lysates
# T1 construct: HCV NS3/4A protease activity (Michaelis constant Km = 0.60 µM) in the lysates; endogenous in cells; host or cells: lysates
# T1 sequence (Q99IB8 1662-1715): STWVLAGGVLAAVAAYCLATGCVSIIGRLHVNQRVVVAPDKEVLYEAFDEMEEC
# T1 sequence (Q99IB8 1031-1661): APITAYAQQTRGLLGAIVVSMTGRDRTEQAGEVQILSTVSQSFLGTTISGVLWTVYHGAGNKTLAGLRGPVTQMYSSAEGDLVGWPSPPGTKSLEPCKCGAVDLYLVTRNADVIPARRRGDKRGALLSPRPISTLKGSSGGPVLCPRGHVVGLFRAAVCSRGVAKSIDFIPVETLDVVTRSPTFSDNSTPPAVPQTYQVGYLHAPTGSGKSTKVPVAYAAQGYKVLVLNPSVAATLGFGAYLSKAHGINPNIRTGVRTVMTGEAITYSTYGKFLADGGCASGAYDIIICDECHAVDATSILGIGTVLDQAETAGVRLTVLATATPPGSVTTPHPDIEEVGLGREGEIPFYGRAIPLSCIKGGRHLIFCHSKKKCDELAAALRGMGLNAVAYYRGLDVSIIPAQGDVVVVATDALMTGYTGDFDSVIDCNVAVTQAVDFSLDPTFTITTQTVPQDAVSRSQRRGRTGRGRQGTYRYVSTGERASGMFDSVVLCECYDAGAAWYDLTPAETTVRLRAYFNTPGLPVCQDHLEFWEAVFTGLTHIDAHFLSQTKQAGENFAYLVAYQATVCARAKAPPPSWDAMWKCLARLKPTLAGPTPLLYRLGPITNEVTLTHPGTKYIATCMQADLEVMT
# [5] = system: HCV NS3; experiment: Intracellular HCV NS3 protein level in infected Huh7.5 cells (Western blot); format: cell-based, hepatitis C virus (HCV)
# [6] = system: Hsc70; experiment: Hsc70 protein expression in Huh7.5 cells (Western blot); format: cell-based, Human; conditions: Huh7.5 cells, 31.25, 62.5, 125 and 250 µg/mL, 72 h
# Experimental: as §2
# The extracted total protein were denatured by adding 5× loading buffer (250 mM Tris-HCl, pH 6.8, 5% dithiothreitol, 10% SDS, 0.5% bromophenol blue, 50% glycerol), followed by boiling for 10 min. Proteins were analyzed with SDS-PAGE, then transfered onto nitrocellulose membranes by electroblotter. The membranes were blocked in 5% nonfat dry milk in TBS-T solusion (20 mM Tris, 150 mM NaCl, 0.1% Tween-20) for 1 h, and washed three times for 10 min each in the TBS-T. Membrane samples were probed with monoclonal antibody specific for protein of HCV core or Hsc70. As a control, monoclonal antibody to actin was used. […] Protein was detected using Immbilon Western Chemiluminescent HRP Substrate (Millipore Inc.) with Alpha Innotech Focus and Image Acquisition.
# [7] = Single dose toxicity test in mice; conditions: for effect on body weight: i.g single dose 250, 500 or 1000 mg/kg (data not shown); for mortality: i.g single dose 250, 500 or 1000 mg/kg, 7 days; for LD50: oral (i.g) single dose, monitored 7 days
# Experimental: Single dose toxicity tests for 7c and 7m were carried out in mice as well. After 7c or 7m was given by intragastric administration (i.g) at a dose of 250, 500 or 1000 mg/kg, the mice were closely monitored for 7 days.
# Animals were purchased from the Institute of Laboratory Animal Sciences, Chinese Academy of Medical Sciences and Peking Union Medical College, Beijing, China. All experimental procedures were approved by Biomedical Ethics Committee of Chinese Academy of Medical Sciences of animal use and protection. The mice were cared according to the institutional guidelines of the Chinese Academy of Medical Sciences. Male and female KunMing mice with weight of 22.0±1.0 g were fed with regular chow and housed in an air-conditioned room. The mice were randomly divided into five groups with 10 mice each (five male plus five female). The each group of mice were administrated orally 7c and 7m at 0 (saline as control), 500 or 1000 mg/kg, respectively. The test compounds were given in a single-dosing. Body weight as well as survival was closely monitored.
# [8] = Oral pharmacokinetics in male ICR mice; conditions: for MRT / t1/2 / AUC 0−t / Cmax / Tmax: oral (ig) 25 mg/kg; for Cmax / Tmax: plasma
# Experimental: The study compounds were given to male ICR mice via oral (ig, 25 mg/kg) route.
# Male male ICR mice (20–40 g) were obtained from SLAC Laboratory Animal Inc. (Shanghai, China). Three male ICR mice were used in each study. Each of them was dosed with a tested compound at 25 mg/kg via oral administration. Nine blood samples were collected at 0, 0.25, 0.50, 1.0, 2.0, 4.0, 6.0 and 24 h and were immediately centrifuged to separate the plasma fractions. The separated plasma samples were stored at –20°C for analysis. Concentration-versus-time profiles were obtained for each analyte, and standard non-compartmental analysis was performed on the data using WinNonlin software, version 5.3, to recover the AUC and other non-compartmental parameters.
# [9] = cytotoxicity, Huh7.5 cells, MTT, 72 h, read-out: CC50
SMILES,"SI (selectivity index, CC50/EC50) [1]",EC50 [1] [µM],CC50 [2] [µM],also measured
"O=C(O)CCCC1C2CCCN3CCCC(CN1Cc1ccc(F)cc1)C23 (stereo not drawn) [Compound 12e, 12-N-4-Flurobenzyl sophoridinic acid]",10.4,108,1120,–
"O=C(O)CCCC1C2CCCN3CCCC(CN1Cc1ccc(Cl)c(Cl)c1)C23 (stereo not drawn) [Compound 7j, 12-N-3,4-Dichlorobenzyl matrinic acid]",3.7,268,1010,–
"O=C(O)CCC[C@@H]1[C@H]2CCCN3CCC[C@@H](CN1Cc1ccccc1F)[C@@H]23 [Compound 7d, 12-N-2-Fluorobenzyl matrinic acid]",19.0,87.4,1660,–
"O=C(O)CCCC1C2CCCN3CCCC(CN1Cc1ccc(OC(F)(F)F)cc1)C23 (stereo not drawn) [Compound 12f, 12-N-4-Trifluoromethoxybenzyl sophoridinic acid]",12.7,11.1,141,–
"Cc1ccccc1CN1CC2CCCN3CCCC(C1CCCC(=O)O)C23 (stereo not drawn) [Compound 7a, 12-N-2-Methylbenzyl matrinic acid]",5.6,203,1130,–
"O=C(O)CCCC1C2CCCN3CCCC(CN1Cc1ccc(Cl)cc1Cl)C23 (stereo not drawn) [Compound 7k, 12-N-2,4-Dichlorobenzyl matrinic acid]",1.3,460,578,–
"O=C(O)CCCC1C2CCCN3CCCC(CN1Cc1cccc(F)c1)C23 (stereo not drawn) [Compound 7e, 12-N-3-Fluorobenzyl matrinic acid]",8.4,168,1410,–
"COc1ccc(CN2CC3CCCN4CCCC(C2CCCC(=O)O)C34)cc1 (stereo not drawn) [Compound 12a, 12-N-4-Methoxybenzyl sophoridinic acid]",18.5,57.5,1060,–
"O=C(O)CCCC1C2CCCN3CCCC(CN1Cc1ccc(F)cc1)C23 (stereo not drawn) [Compound 7f, 12-N-4-Fluorobenzyl matrinic acid]",>15.1,176,> 2670,–
"O=C(O)CCCC1C2CCCN3CCCC(CN1Cc1ccc(Br)cc1)C23 (stereo not drawn) [Compound 7l, 12-N-4-Bromobenzyl matrinic acid]",10.3,119,1230,–
"Cc1ccc(CN2CC3CCCN4CCCC(C2CCCC(=O)O)C34)cc1 (stereo not drawn) [Compound 7c, 12-N-4-Methylbenzyl matrinic acid]",–,51.1,–,"therapeutic efficacy before, at and after infection [3]: anti-HCV pattern close to that of 7m; improvement in anti-HCV activity as compared to 1 [1]: 2 fold; CC50 [2, 9]: > 2700 µM; HCV NS3/4A protease activity after treatment [4]: not altered; HCV NS3 level ([5]; Huh7.5 cells, 62.5 µg/mL): significantly reduced; intracellular HCV-NS3 protein ([5]; Huh7.5 cells, 31.25, 62.5, 125 and 250 µg/mL, 72 h): decreased dose-dependently; Hsc70 protein expression [6]: afforded activity in down-regulating Hsc70 protein expression; also recorded: decreased dose-dependently; effect on body weight [7]: no effect; mortality [7]: No mouse died; LD50 [7]: > 1000 mg/kg; MRT [8]: 1.68 h; t1/2 [8]: 1.5 h; AUC 0−t ([8]; 0 to 24 h): 13.4 µM·h; Cmax [8]: 13.2 µM; Tmax [8]: 0.25 h"
"O=C(O)CCC[C@@H]1[C@H]2CCCN3CCC[C@@H](CN1Cc1ccc(OC(F)(F)F)cc1)[C@@H]23 [Compound 7n, 12-N-4-Trifluoromethoxybenzyl matrinic acid]",15.5,88.5,1380,–
"Cc1cccc(CN2C[C@@H]3CCCN4CCC[C@@H]([C@H]34)[C@H]2CCCC(=O)O)c1 [Compound 7b, 12-N-3-Methylbenzyl matrinic acid]",9.0,266,2390,–
"O=C(O)CCCC1C2CCCN3CCCC(CN1Cc1cccc4ccccc14)C23 (stereo not drawn) [Compound 7o, 12-N-1-Naphthylmethylenyl matrinic acid]",<1.6,> 821,1300,anti-HCV activity (in words) [1]: lost the activity completely
"O=C(O)CCCC1C2CCCN3CCCC(CN1Cc1ccc(Cl)cc1)C23 (stereo not drawn) [Compound 7i, 12-N-4-Chlorobenzyl matrinic acid]",18.4,136,2500,–
"O=C(O)CCCC1C2CCCN3CCCC(CN1Cc1ccccc1F)C23 (stereo not drawn) [Compound 12d, 12-N-2-Flurobenzyl sophoridinic acid]",<1.7,> 890,1550,–
"Cc1ccc(CN2CC3CCCN4CCCC(C2CCCC(=O)O)C34)cc1 (stereo not drawn) [Compound 12c, 12-N-4-Methylbenzyl sophoridinic acid]",4.4,503,2200,–
"C=Cc1ccc(CN2C[C@@H]3CCCN4CCC[C@@H]([C@H]34)[C@H]2CCCC(=O)O)cc1 [Compound 7m, 12-N-4-Vinylbenzyl matrinic acid]",39.2,4.7,–,"therapeutic efficacy before, at and after infection [3]: effective before, at and after HCV infection; CC50 [2, 9]: 184 µM; HCV NS3/4A protease activity after treatment [4]: not altered; effect on body weight [7]: no effect; mortality [7]: No mouse died; LD50 [7]: over 1000 mg/kg; Cmax relative to that of 7c ([8]; oral 25 mg/kg): 1.8 fold; AUC relative to that of 7c ([8]; oral 25 mg/kg, 0 to 24 h): approximately 2 fold; MRT [8]: 1.65 h; t1/2 [8]: 2.01 h; AUC 0−t ([8]; 0 to 24 h): 25.9 µM·h; Cmax [8]: 23.2 µM; Tmax [8]: 0.5 h"
"O=C(O)CCCC1C2CCCN3CCCC(CN1Cc1cccc(Cl)c1)C23 (stereo not drawn) [Compound 7h, 12-N-3-Chlorobenzyl matrinic acid]",>28.9,88.5,> 2560,anti-HCV activity (in words) [1]: slight improvement in comparison to the lead
"O=C(O)CCCC1C2CCCN3CCCC(CN1Cc1ccccc1Cl)C23 (stereo not drawn) [Compound 7g, 12-N-2-Chlorobenzyl matrinic acid]",7.3,176,1290,–
"Cc1cccc(CN2CC3CCCN4CCCC(C2CCCC(=O)O)C34)c1 (stereo not drawn) [Compound 12b, 12-N-3-Methylbenzyl sophoridinic acid]",2.9,453,1320,–
